Assay results as given in patent US8642647B2, “N1-benzo[1,3]dioxol-5-ylmethyl-N2-substituted biguanide derivative, preparation method thereof, and pharmaceutical composition containing same” (Hanall Biopharma Co., Ltd., priority 2008, dated 2014).
Where a name gives a salt, the structure may show the parent alone.

Legend:
Assay type in all cases: cell-based
HepG2 cells [1] = test: Measurement of cholesterol synthesis inhibitory ability; conditions: for Cholesterol (100 μM) aver.: 100 μM compound; for Cholesterol (100 μM) aver. / Cholesterol (500 μM) aver.: 24 hours, HepG2 cells, content of cholesterol formed, lower value = stronger inhibition; for Cholesterol (500 μM) aver.: 500 μM compound
Method: (§1) 2 mM metformin was used as a comparative compound for each of the plates (control group).
A cholesterol synthesis inhibitory ability, which is an important function of AMPK (AMP-activated protein kinase), was measured using HepG2 cells (ATCC: American Type Culture Collection) as a hepatic cell model according to the following procedure.
The hepatic cell model HepG2 cells were cultured in 1% serum-containing media (DMEM (Gibco), FBS (Gibco)) for 24 hours, and then treated with 100 μM or 500 μM of each of the compounds prepared in Examples for 24 hours. Then, the cells were disrupted with a lysis solution (0.1 M potassium phosphate, pH 7.4, 0.05 M NaCl, 5 mM cholic acid, 0.1% Triton X-100 (Sigma)). To the disrupted cells was added the same volume of a reaction solution (2 U/ml of a cholesterol oxidizing agent, 2 U/ml of a peroxidase, 0.2 U/ml of a cholesterol esterase, and 300 μM of Amplex red as a fluorescent factor (Molecular Probe)), which was allowed to react at 37° C. for 30 minutes. After completion of the reaction, the content of cholesterol formed in the cell lysates was measured at a wavelength of 560/590 nm (ex/em) using a fluorescence microscope.
A lower measurement value means an increased cholesterol synthesis inhibitory ability.

HepG2 cells [2] = test: Measurement of gluconeogenesis inhibitory ability; conditions: Homo sapiens, HepG2, 24 h, 100 μM compound, 24 hours, HepG2 cells; content of glucose formed from 14C-lactate; lower value = stronger inhibition; read-out: Gluconeogenesis inhibition (100 μM) aver.
Method: as §1
HepG2 cells (ATCC: American Type Culture Collection) were cultured in 10% serum-containing high glucose media, transferred to no serum-containing low glucose media (DMEM (Gibco), FBS (Gibco)), and then treated with 100 μM of each of the compounds for 24 hours. Then, the cells were treated with 0.5 μCi ^14C-lactate (Amersham Pharmacia) and 10 mM L-lactate (Sigma), and cultured for 4 hours. After cultivation, the media were removed therefrom, and the cells were washed with PBS, treated with 0.1N NaOH and kept at room temperature for 1 hour. Then, the cells were neutralized with 1N HCl, and the content of glucose formed in the cells was measured with a liquid scintillation counter.
A lower measurement value means an increased gluconeogenesis inhibitory ability.

HepG2 cells [3] = test: Measurement of triglyceride synthesis inhibitory ability; conditions: 24 hours, HepG2 cells, content of triglyceride formed, lower value = stronger inhibition; for Triglyceride (100 μM) aver.: 100 μM compound; for Triglyceride (500 μM) aver.: 500 μM compound
Method: as §1
HepG2 cells (ATCC: American Type Culture Collection) were cultured in 1% serum-containing media (DMEM (Gibco), FBS (Gibco)) for 24 hours, and then treated with 100 μM or 500 μM of each of the compounds prepared in Examples for 24 hours. Then, the cells were disrupted with a lysis solution (0.1 M potassium phosphate, pH 7.4, 0.05 M NaCl, 5 mM cholic acid, 0.1% Triton X-100). To the disrupted cells was added the same volume of a reaction solution (0.76 U/ml of a glycerol kinase (Asan Pharmaceutical Co., Ltd.), […] of a peroxidase (Asan Pharmaceutical Co., Ltd.), 22.2 U/ml of a glycerol oxidizing agent (Asan Pharmaceutical Co., Ltd.), and 300 μM of Amplex red as a fluorescent factor (Molecular Probe)), which was allowed to react at 37° C. for 30 minutes. After completion of the reaction, the content of triglyceride formed in the cell lysates was measured at a wavelength of 560/590 nm (ex/em) using a fluorescence microscope.
A lower measurement value means an increased triglyceride synthesis inhibitory ability.

Row | SMILES | Cholesterol (100 μM) aver. (HepG2 cells [1]) | Cholesterol (500 μM) aver. (HepG2 cells [1]) | activity at 100 µM (HepG2 cells [2]) [%] | Triglyceride (100 μM) aver. (HepG2 cells [3]) | Triglyceride (500 μM) aver. (HepG2 cells [3]) | effect in inhibiting cholesterol synthesis better than that of the control group (HepG2 cells [1]; 100 μM compound versus 2 mM metformin)
1 | CCN=C(NCc1ccc2c(c1)OCO2)NC(=N)N.Cl [Example 1, N1-benzo[1,3]dioxol-5-ylmethyl-N2-ethyl biguanide hydrochloride] | 66.3 | 50.8 | 89.8 | 98.6 | 49.6 | –
2 | Cl.N=C(N)NC(=NC1CCCCC1)NCc1ccc2c(c1)OCO2 [Example 2, N1-benzo[1,3]dioxol-5-ylmethyl-N2-cyclohexyl biguanide hydrochloride] | 43.7 | 15.6 | 95.2 | 108.9 | 26.9 | –
3 | N=C(N)NC(=Nc1cccc2ccccc12)NCc1ccc2c(c1)OCO2 [Example 3, N1-benzo[1,3]dioxol-5-ylmethyl-N2-(1-naphthyl)biguanide hydrochloride] | 8.11 | 28.8 | 3.27 | 3.74 | −6.97 | –
4 | CCCCCCN=C(NCc1ccc2c(c1)OCO2)NC(=N)N.Cl [Example 6, N1-benzo[1,3]dioxol-5-ylmethyl-N2-hexyl biguanide hydrochloride] | 31.8 | 19.1 | 104 | 97.8 | 70.3 | –
5 | N=C(N)NC(=NCCc1ccccc1)NCc1ccc2c(c1)OCO2 [Example 7, N1-benzo[1,3]dioxol-5-ylmethyl-N2-(phenethyl)biguanide hydrochloride] | 23.6 | 12.9 | 118 | 77.1 | 11.8 | –
6 | Cl.N=C(N)NC(=Nc1cccc(C(F)(F)F)c1)NCc1ccc2c(c1)OCO2 [Example 10, N1-benzo[1,3]dioxol-5-ylmethyl-N2-(3-trifluoromethylphenyl)biguanide hydrochloride] | 33.41 | – | 2.76 | 11.52 | – | –
7 | Cc1ccc(CN=C(NCc2ccc3c(c2)OCO3)NC(=N)N)cc1.Cl [Example 11, N1-benzo[1,3]dioxol-5-ylmethyl-N2-(4-methylbenzyl)biguanide hydrochloride] | 32.34 | – | 1.81 | 7.49 | – | –
8 | COc1ccc(OC)c(N=C(NCc2ccc3c(c2)OCO3)NC(=N)N)c1.Cl [Example 12, N1-benzo[1,3]dioxol-5-ylmethyl-N2-(2,5-dimethoxyphenyl)biguanide hydrochloride] | 58.53 | – | 27.4 | 84.10 | – | –
9 | Cl.N=C(N)NC(=Nc1ccc2c(c1)Cc1ccccc1-2)NCc1ccc2c(c1)OCO2 [Example 13, N1-benzo[1,3]dioxol-5-ylmethyl-N2-(2-fluorenyl)biguanide hydrochloride] | 31.42 | – | 2.15 | 9.22 | – | –
10 | Cl.N=C(N)NC(=Nc1ccc(F)cc1)NCc1ccc2c(c1)OCO2 [Example 14, N1-benzo[1,3]dioxol-5-ylmethyl-N2-(4-fluorophenyl)biguanide hydrochloride] | 57.35 | – | 102 | 115.04 | – | –
11 | COc1ccc(N=C(NCc2ccc3c(c2)OCO3)NC(=N)N)cc1.Cl [Example 15, N1-benzo[1,3]dioxol-5-ylmethyl-N2-(4-methoxyphenyl)biguanide hydrochloride] | 52.95 | – | 75.6 | 104.17 | – | at least 20 times
12 | CCCN=C(NCc1ccc2c(c1)OCO2)NC(=N)N.Cl [Example 16, N1-benzo[1,3]dioxol-5-ylmethyl-N2-propyl biguanide hydrochloride] | 38.66 | – | 33.1 | 32.56 | – | –
13 | C=CCN=C(NCc1ccc2c(c1)OCO2)NC(=N)N [Example 18, N1-benzo[1,3]dioxol-5-ylmethyl-N2-allyl biguanide hydrochloride] | 40.31 | 9.71 | 95.1 | 97.00 | 46.89 | –
14 | Cl.N=C(N)NC(=NC1CCCC1)NCc1ccc2c(c1)OCO2 [Example 19, N1-benzo[1,3]dioxol-5-ylmethyl-N2-cyclopentyl biguanide hydrochloride] | 57.58 | 27.93 | 92.7 | 100.59 | 80.60 | –
15 | Cl.N=C(N)NC(=NC1CCCCCC1)NCc1ccc2c(c1)OCO2 [Example 20, N1-benzo[1,3]dioxol-5-ylmethyl-N2-cycloheptyl biguanide hydrochloride] | 31.37 | −14.69 | 39.4 | 99.89 | 41.32 | –
16 | CC(C)N=C(NCc1ccc2c(c1)OCO2)NC(=N)N.Cl [Example 22, N1-benzo[1,3]dioxol-5-ylmethyl-N2-isopropyl biguanide hydrochloride] | 63.99 | 34.97 | 83 | 78.51 | 60.13 | –
17 | CC(C)CN=C(NCc1ccc2c(c1)OCO2)NC(=N)N.Cl [Example 23, N1-benzo[1,3]dioxol-5-ylmethyl-N2-isobutyl biguanide hydrochloride] | 68.02 | 36.29 | 100 | 84.58 | 59.80 | –
18 | COc1cc(N=C(NCc2ccc3c(c2)OCO3)NC(=N)N)cc(OC)c1OC.Cl [Example 24, N1-benzo[1,3]dioxol-5-ylmethyl-N2-(3,4,5-trimethoxyphenyl)biguanide hydrochloride] | 65.36 | 31.14 | 88.7 | 80.30 | 60.08 | –
19 | CCCCCCc1ccc(N=C(NCc2ccc3c(c2)OCO3)NC(=N)N)cc1.Cl [Example 25, N1-benzo[1,3]dioxol-5-ylmethyl-N2-(4-hexylphenyl)biguanide hydrochloride] | 82.62 | 125.3 | 2.53 | 18.43 | 35.53 | –
20 | COc1cc(N=C(NCc2ccc3c(c2)OCO3)NC(=N)N)cc(OC)c1.Cl [Example 26, N1-benzo[1,3]dioxol-5-ylmethyl-N2-(3,5-dimethoxyphenyl)biguanide hydrochloride] | 61.86 | 17.53 | 87.6 | 86.94 | 21.88 | –
21 | Cl.N=C(N)NC(=NC12CC3CC(CC(C3)C1)C2)NCc1ccc2c(c1)OCO2 [Example 27, N1-benzo[1,3]dioxol-5-ylmethyl-N2-(1-adamantyl)biguanide hydrochloride] | 64.82 | 45.24 | 31.4 | 67.58 | 11.48 | –
